“And” between values parts separate entries of the source, which are not always exact repeats. Identical values can stand only once.
Test system: 598228-144-R-J1-PDC complex spheroid viability
Test: Anticancer human tumor 598228-144-R-J1-PDC patient-derived serous endometrial adenocarcinoma cell line growth inhibition [GQUAD]
Conditions: for viability, T/C: stronger effect = lower value; active = viability on the fitted dose curve at most 10% of control; inactive = the rest
Source text: DNA G-quadruplex Stabilizer Agents in Combinations in Complex Spheroids
A high-throughput screen of multi-cell type tumor spheroids was designed to identify active combinations of DNA G-quadruplex stabilizer agents and targeted small molecules. Complex spheroids include a stromal component modeled by human endothelial cells (HUVEC) and fibroblasts modeled by human mesenchymal stem cells (MSCs). The concentration ranges selected for each drug and investigational agent were based upon clinically achievable concentrations if the clinical Cmax of the agent was known.
Compounds. The drugs and investigational agents: pidnarulex (CX-5461; NSC782164), APTO-253 (NSC789042), BRACO-19 (NSC847499), peposertib (NSC802822), ceralasertib (NSC780249), elimusertib (NSC800525), camonsertib (NSC841442), AZD-1390 (NSC803789), olaparib (NSC753686), talazoparib (NSC767125), ART-558 (NSC835418), sotorasib (NSC818433), MRTX-1133 (NSC836407), SN-38 (NSC673596), topotecan (NSC609699), etoposide (NSC141540), doxorubicin (NSC123127), gemcitabine (NSC613327), 5-fluorouracil (NSC19893), paclitaxel (NSC125973), vemurafenib (NSC761431), panobinostat (NSC761190), R-306465 (JNJ-16241199; NSC773264), adavosertib (NSC754352), TP-3654 (NSC805149), carboplatin (NSC241240), KSQ-4279 (NSC840948), and staurosporine (NSC755774) were obtained from the National Cancer Institute (NCI) Developmental Therapeutics Program Chemical Repository (34). The FDA-approved anticancer drug set is available from the NCI Developmental Therapeutics Program. […] The stock solutions were prepared in dimethyl sulfoxide (DMSO, Sigma-Aldrich, St. Louis, MO, cat. D2650) at 800-fold the tested concentration and stored at -70 degrees C prior to their use. All drugs and investigational agents were tested over a range starting from a high concentration at or near the clinical Cmax and decreasing in half-log increments. If the clinical Cmax for an agent had not been determined, the highest concentration tested was 10 microM.
2.3 Cell Culture. All cells were maintained in an incubator at 37 degrees C and 5% CO2 with 95% humidity. The PDC lines were cultured according to standard operating procedures established by the NCI PDMR. All PDCs were thawed and cultured in Matrigel-coated flasks prepared with a working solution of 1X Ham's F-12 nutrient mix, without supplementation (Invitrogen, cat. 11765054), 100 U/mL penicillin-streptomycin (Invitrogen, cat. 15140122), and 2.5% Matrigel (Corning Inc., cat. 354248) for the first three passages. The 857933-349-R-J2-PDC line was cultured in 6C/Colon 1B media, which includes advanced DMEM/F-12 (Thermo Fisher Scientific, cat. 12634028), 10 mM HEPES (Thermo Fisher Scientific, cat. 15630080), 1X GlutaMAX supplement (Thermo Fisher Scientific, cat. 35050061), 0.1 mg/mL primocin (InvivoGen, cat. ant-pm-2), 10% defined fetal bovine serum, heat inactivated (HyClone Laboratories Inc., cat. SH30070.03HI), 50% L-WRN conditioned media (ATCC, cat. CRL-3276), 1.25 mM N-Acetyl-L-cysteine (Sigma-Aldrich, cat. A9165), 10 mM nicotinamide (Sigma-Aldrich, cat. N0636), 1X B-27 supplement (Thermo Fisher Scientific, cat. 17504044), 1X N-2 supplement (Thermo Fisher Scientific, cat. 17502048), 10 microM Y-27632 dihydrochloride (Tocris Bioscience, cat. 1254), and 50 ng/mL human EGF recombinant protein (Thermo Fisher Scientific, cat. PHG0311). The 485176-168-R4-J1-PDC line was cultured in Panc media, which includes all 6C/Colon 1B media components plus 100 ng/mL human FGF-10 (Thermo Fisher Scientific, cat. 100-26), 500 nM SB-431542 (Selleckchem, cat. S1067), and gastrin (Tocris, cat. 3006).
[…]

[1] = curve of first compound, second compound 0.0316 µM
[2] = curve of first compound, second compound 0.1 µM
[3] = curve of first compound, second compound 0.316 µM
[4] = curve of first compound, second compound 1 µM
[5] = curve of first compound, second compound 3.16 µM
[6] = curve of first compound, second compound 10 µM
[7] = second compound 0.0316 µM, first compound 0.0316 µM
[8] = second compound 0.0316 µM, first compound 0.1 µM
[9] = second compound 0.0316 µM, first compound 0.316 µM
[10] = second compound 0.0316 µM, first compound 1 µM
[11] = second compound 0.0316 µM, first compound 3.16 µM
[12] = second compound 0.0316 µM, first compound 10 µM
[13] = second compound 0.1 µM, first compound 0.0316 µM
[14] = second compound 0.1 µM, first compound 0.1 µM
[15] = second compound 0.1 µM, first compound 0.316 µM
[16] = second compound 0.1 µM, first compound 1 µM
[17] = second compound 0.1 µM, first compound 3.16 µM
[18] = second compound 0.1 µM, first compound 10 µM
[19] = second compound 0.316 µM, first compound 0.0316 µM
[20] = second compound 0.316 µM, first compound 0.1 µM
[21] = second compound 0.316 µM, first compound 0.316 µM
[22] = second compound 0.316 µM, first compound 1 µM
[23] = second compound 0.316 µM, first compound 3.16 µM
[24] = second compound 0.316 µM, first compound 10 µM
[25] = second compound 1 µM, first compound 0.0316 µM
[26] = second compound 1 µM, first compound 0.1 µM
[27] = second compound 1 µM, first compound 0.316 µM
[28] = second compound 1 µM, first compound 1 µM
[29] = second compound 1 µM, first compound 3.16 µM
[30] = second compound 1 µM, first compound 10 µM
[31] = second compound 3.16 µM, first compound 0.0316 µM
[32] = second compound 3.16 µM, first compound 0.1 µM
[33] = second compound 3.16 µM, first compound 0.316 µM
[34] = second compound 3.16 µM, first compound 1 µM
[35] = second compound 3.16 µM, first compound 3.16 µM
[36] = second compound 3.16 µM, first compound 10 µM
[37] = second compound 10 µM, first compound 0.0316 µM
[38] = second compound 10 µM, first compound 0.1 µM
[39] = second compound 10 µM, first compound 0.316 µM
[40] = second compound 10 µM, first compound 1 µM
[41] = second compound 10 µM, first compound 3.16 µM
[42] = second compound 10 µM, first compound 10 µM
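Also: spheroids exposed to the agents for one week before reading.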
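For viability, T/C in this document: percent of vehicle DMSO control viability so 100% = untreated growth.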

COc1ncnc(C2CC2)c1-c1ncc2cnn(Cc3ccc(-c4nc(C(F)(F)F)cn4C(C)C)cc3)c2n1 + Cc1[nH]c2ccc(F)cc2c1-c1nc2c3cccnc3c3ncccc3c2[nH]1
< 0.0316 µM: IC50 [5]
> 10 µM: IC50 [1] | IC50 [2] | IC50 [3] | IC50 [4] | IC50 [6]
inactive: viability, T/C [7] 130% | viability, T/C [8] 124% | viability, T/C [9] 125% | viability, T/C [10] 93.1% | viability, T/C [11] 119% | viability, T/C [12] 112% | viability, T/C [13] 116% | viability, T/C [14] 94.5% | viability, T/C [15] 103% | viability, T/C [16] 91.8% | viability, T/C [17] 114% | viability, T/C [18] 130% | viability, T/C [19] 94.3% | viability, T/C [20] 93.3% | viability, T/C [21] 82% | viability, T/C [22] 93.1% | viability, T/C [23] 126% | viability, T/C [24] 105% | viability, T/C [25] 51.1% | viability, T/C [26] 76.1% | viability, T/C [27] 74.5% | viability, T/C [28] 58% | viability, T/C [29] 66.2% | viability, T/C [30] 78.3% | viability, T/C [31] 38% | viability, T/C [32] 31.1% | viability, T/C [33] 39.2% | viability, T/C [34] 34.2% | viability, T/C [35] 41.8% | viability, T/C [36] 38.7% | viability, T/C [37] 65% | viability, T/C [38] 65% | viability, T/C [39] 69.6% | viability, T/C [40] 57.2% | viability, T/C [41] 77.7% | viability, T/C [42] 105%

CC(C)n1c(=O)n(C)c2cnc3cc(F)c(-c4ccc(OCCCN5CCCCC5)nc4)cc3c21 + Cc1[nH]c2ccc(F)cc2c1-c1nc2c3cccnc3c3ncccc3c2[nH]1
5.12 µM: IC50 [4]
inactive: viability, T/C [7] 116% | viability, T/C [8] 100% | viability, T/C [9] 117% | viability, T/C [10] 121% | viability, T/C [11] 106% | viability, T/C [12] 65% | viability, T/C [13] 107% | viability, T/C [14] 108% | viability, T/C [15] 95.4% | viability, T/C [16] 94.4% | viability, T/C [17] 91.7% | viability, T/C [18] 77% | viability, T/C [19] 90.8% | viability, T/C [20] 97.2% | viability, T/C [21] 93.9% | viability, T/C [22] 87.4% | viability, T/C [23] 101% | viability, T/C [24] 62.2% | viability, T/C [25] 72.6% | viability, T/C [26] 60.6% | viability, T/C [27] 59.2% | viability, T/C [28] 60.6% | viability, T/C [29] 59.2% | viability, T/C [30] 39.5% | viability, T/C [31] 45.2% | viability, T/C [32] 47.4% | viability, T/C [33] 40.8% | viability, T/C [34] 39.3% | viability, T/C [35] 29.5% | viability, T/C [36] 27.3% | viability, T/C [37] 66% | viability, T/C [38] 57.9% | viability, T/C [39] 52.9% | viability, T/C [40] 54.1% | viability, T/C [41] 55.4% | viability, T/C [42] 46.5%
> 10 µM: IC50 [1] | IC50 [2] | IC50 [3] | IC50 [6]
< 0.0316 µM: IC50 [5]

C#Cc1c(F)ccc2cc(O)cc(-c3ncc4c(N5CC6CCC(C5)N6)nc(OCC56CCCN5CC(F)C6)nc4c3F)c12 (stereo unspecified)
> 10 µM: IC50 (curve of compound)
inactive: viability, T/C (compound 0.0316 µM) 103% and 107% and 96.2% | viability, T/C (compound 0.1 µM) 98.9% and 118% and 97.6% | viability, T/C (compound 0.316 µM) 106% (2×) and 98.1% | viability, T/C (compound 1 µM) 100% and 101% and 92.4% | viability, T/C (compound 3.16 µM) 96.8% and 99.4% and 96.6% | viability, T/C (compound 10 µM) 84.1% and 105% and 83.3%

Source: PubChem BioAssay AID2060506 (Molecular Pharmacology Branch, DTP, NCI, 2025)
